Data on two molecules can be found in article PMC7815716, “Mechanistic basis of breast cancer resistance protein inhibition by new indeno[1,2-b]indoles” (Scientific Reports, 2021).

The test system of series [1] is ABCG2. The arrangement: method as in PMID 15930306. As to conditions: cited from earlier work.
In series [2] the target is T1, ABCG2 (Homo sapiens, UniProt Q9UNQ0).
T1 sequence (Q9UNQ0 1-655): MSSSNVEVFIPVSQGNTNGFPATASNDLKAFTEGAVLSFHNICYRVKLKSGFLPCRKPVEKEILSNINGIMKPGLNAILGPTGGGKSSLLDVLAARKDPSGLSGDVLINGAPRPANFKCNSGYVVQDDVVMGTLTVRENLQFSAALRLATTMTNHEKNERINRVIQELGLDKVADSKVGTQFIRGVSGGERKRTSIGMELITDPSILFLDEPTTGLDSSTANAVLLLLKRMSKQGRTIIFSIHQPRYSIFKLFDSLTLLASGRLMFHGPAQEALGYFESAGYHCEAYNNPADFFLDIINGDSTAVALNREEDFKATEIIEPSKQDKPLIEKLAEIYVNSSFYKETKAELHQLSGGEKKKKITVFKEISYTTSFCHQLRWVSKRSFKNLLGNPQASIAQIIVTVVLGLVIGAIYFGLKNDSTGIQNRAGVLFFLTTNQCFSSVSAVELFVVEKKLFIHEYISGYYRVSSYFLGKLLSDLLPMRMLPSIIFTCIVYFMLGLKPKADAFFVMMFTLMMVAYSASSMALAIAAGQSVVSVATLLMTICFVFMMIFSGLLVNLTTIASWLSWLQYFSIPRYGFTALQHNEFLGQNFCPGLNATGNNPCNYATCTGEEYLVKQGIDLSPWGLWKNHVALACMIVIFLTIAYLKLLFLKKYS
Briefly: Inhibition of ABCG2-mediated mitoxantrone efflux (flow cytometry). It is filed as cell-based. Also on record: expressed in transfected cells; host or cells: HEK293. On the procedure: ABCG2 inhibition assays were carried out on HEK293 WT and HEK293-ABCG2 cells. Cells were seeded at the density of 1 × 10^5 cells/well in 24 well culture plates and incubated for 48 h at 37 °C under 5% CO2. Cells were treated with compounds and 10 μM of mitoxantrone for 30 min at 37 °C and 5% CO2. After incubation the cells were washed with PBS, trypsinized and resuspended in ice cold PBS. The intracellular drug fluorescence was monitored with a FACS Calibur cytometer (Becton Dickinson) using the FL4 channel, with at least 10,000 events collected. The maximal fluorescence (taken as 100%) was determined with the difference between the mean fluorescence of HEK-ABCG2 cells incubated with 0.5 μM Ko143 (ABCG2 reference inhibitor) or by using the HEK293 WT cell line as a control and cells without inhibitor (mitoxantrone alone). The percent of inhibition was determined as previously described. For bimodulation assays the cells were concomitantly treated with 10 μM of one or two combined inhibitors under similar conditions as described previously. For washing assays, cells were treated with 10 μM concentrations of compounds for 30 min. Then, the medium with the inhibitor was removed and the cells were washed with PBS and incubated only with culture medium for different periods of time (0.5 and 3 h). After incubation, cells were exposed to 5 µM mitoxantrone for 30 min, and then analyzed by flow cytometry. The percentage of transport inhibition was calculated by the following equation: %Inhibition=C-S/I-S×100 where “C” corresponds to the intracellular fluorescence of cells in the presence of the tested compounds and substrate (mitoxantrone to ABCG2, Rhodamine 123 to ABCB1 and calcein to ABCC1), “S” corresponds to the intracellular fluorescence of cells in the presence of substrate alone, and “I” corresponds to the intracellular fluorescence of cells in the presence of the substrate and reference inhibitor (Ko143 to ABCG2, GF120918 to ABCB1 and verapamil to ABCC1).

Series [3] can be described thus: Intrinsic cytotoxicity of compounds, MTT assay. It is filed as cell-based, human. The conditions noted are these: human, HEK293 WT and HEK293-ABCG2 cells, MTT, read-out: IG50 (µM) ± SD, cytotoxicity (half-maximal cell viability). The method, then: Cell viability was evaluated with a 3-(4,5-dimethylthiazol-2-yl)-2,5-diphenyltetrazolium bromide (MTT) colorimetric assay. HEK293 WT and HEK293-ABCG2 cells were seeded into 96-well culture plates at a 1.5 × 10^4 cells/well density. After overnight incubation, the cells were treated with various concentrations of compounds (0–100 µM) for 72 h at 37 °C under 5% CO2. […] Sensitization experiments were also carried out on H460 and H460MX20 cells. For these experiments, H460 and H460MX20 cells were seeded into 96-well culture plates at 1.0 × 10^4 cells/well density. […] After the treatment, the culture medium was removed and 100 μL of a 0.5 mg.mL^−1 MTT solution was added. Cells were then incubated for 4 h at 37 °C under 5% CO2. The formazan crystals were dissolved with a solution of DMSO/ethanol (1:1) and the absorbance was measured at 570 nm using a Multiscan FC microplate reader (Thermo Scientific). The results were expressed as percentage of viable cells versus control cells (0.1% DMSO, v/v) taken as 100%.

As to `CC(C)=CCc1c(O)cc2oc(-c3ccccc3)cc(=O)c2c1O` [6-prenylchrysin], in the series with ABCG2 [1], the “Maximal inhibition of ABCG2” value is “approximately 70%”.
Take `COc1ccccc1CCn1c2c(c3c1-c1cccc(O)c1C3=O)C(=O)CC(C)C2` (centres unmarked) [5i, 1-Hydroxy-7-methyl-5-(2-methoxyphenethyl)-5,6,7,8-tetrahydroindeno[1,2-b]indole-9,10-dione]: the IC50 on ABCG2 [2] (HEK293-ABCG2 cells, mitoxantrone 10 µM, 30 min, read-out: IC50 (µM) ± SD, inhibition of ABCG2-mediated mitoxantrone efflux) worked out at 0.07 ± 0.02 µM. Also, the inhibition at 30 min at ABCG2 [2] (human, HEK293-ABCG2 cells, probe mitoxantrone (10 µM), from IC50 fitted curves, HEK293-ABCG2, mitoxantrone, 100% = Ko143 0.5 µM, read-out: IMAX (%) ± SD, maximal inhibition percentage) was 62.83 ± 0.48%. At ABCG2 [2] (ratio between IG50 and IC50 values), the “TR, therapeutic ratio (IG50/IC50)” value turned out to be 293.66. The IC50 at 72 h in series [3] stood at 20 µM.
